Patent US20250144107A1, “USE OF A PIKFYVE INHIBITOR IN COMBINATION WITH IMMUNOTHERAPY” (The Regents of the University of Michigan, priority 2023, published 2025)

Assays:
[1] = test system: KPC1361 (pancreas), B16-F10 (melanoma), 4T1 (breast), and MyC-CaP (prostate); assay: Flow cytometry of MHC-I surface expression in murine cancer cells; assay type: cell-based; conditions: with or without IFN-γ; in a dose-dependent manner
Text: FIG. 1E (Left) is line graphs of flow cytometry measuring MHC-I surface expression in KPC1361 cells, stimulated with or without IFN-γ, treated with DMSO, Apilimod, or ESK981; (Right) are bar graphs of quantification of flow cytometry measuring MHC-I surface expression in KPC1361 cells, stimulated with or without IFN-γ, treated with DMSO, Apilimod, or ESK981.
FIG. 2A (Left) is line graphs of flow cytometry measuring MHC-I surface expression in MyC-CaP cells, stimulated with or without IFN-γ, treated with DMSO, Apilimod, or ESK981; (Right) is a bar graph of quantification of flow cytometry measuring MHC-I surface expression in MyC-CaP cells, stimulated with or without IFN-γ, treated with DMSO, Apilimod, or ESK981.
Cancer cells or the OVA-expressing cancer cells treated in vitro were harvested from dishes, resuspended in buffer MACS (PBS containing 2% FBS and 2 mM EDTA), and stained with Zombie NIR™ Fixable Viability kit (BioLegend: #423106) and fluorophore-conjugated antibody against MHC-I or PE-conjugated antibody against SIINFEKL bound H-2Kb (BioLegend; catalog #141604), respectively. The cells were next washed twice with 1 ml MACS and fixed with 2% paraformaldehyde in PBS for 15 minutes at room temperature. The cells were then subjected to the flow cytometer (SONY SH800S) for measuring surface expression of MHC-I or SIINFEKL bound H-2Kb, respectively. […]

B16-BL6 melanoma model = assay: B16-BL6 lung metastasis model after removal of primary tumors; assay type: in vivo, mice; conditions: for efficacy of ICB to inhibit metastasis: combination with ICB (anti-PD-1 plus anti-CTLA-4); for lung metastasis: treatment alone
Experimental: FIG. 8A (Left) is a box plot of tumor volume of the efficacy of immune checkpoint inhibitors in combination with apilimod or ESK981 treatment against metastasis in a subcutaneous B16BL6 tumor; (Middle) is a series of 12 images of the efficacy of immune checkpoint inhibitors in combination with apilimod or ESK981 treatment against metastasis in a subcutaneous B16BL6 tumor; (Right) is a box plot of the counts of lung tumor metastasis treated with immune checkpoint inhibitors in combination with apilimod or ESK981.
All experimental protocols were conducted after approval by the U-M Institutional Animal Care & Use Committee. […] KPC1361 cells were resuspended in PBS, 1:1 (v/v) mixed with Matrigel (BD Biosciences; catalog #: 354248), and orthotopically injected to the pancreases at 250,000 cells in a total volume of 50 μl per injection. B16-F10 cells were resuspended in PBS and injected subcutaneously to both flanks at 400,000 cells per injection. For ACT study, B16-F10-OVA cells were resuspended in PBS and injected subcutaneously to both flanks at 300,000 cells per injection. For lung metastasis experiment, B16-BL6 cells were resuspended in PBS, 1:1 (v/v) mixed with Matrigel and injected subcutaneously to both flanks at 400,000 cells per injection. Fifteen days after tumor cell inoculation, the primary tumors were removed surgically under anesthesia. Thirty-five days after removal of the primary tumors, lung tissues were extracted and fixed, and lung metastasis was quantified. C57BL/6 mice were acquired from The Jackson Laboratory. Measurement of tumor volume began 5-9 days post tumor cell implantation and was performed 2-3 times per week using calipers. Volume measurements of pancreatic tumors were also achieved with calipers, as reported See, e.g., Koikawa, K. et al., Cell 2021; 184(18):4753-4771. In brief, mice were subjected to anesthesia with 2-3% isoflurane, and the abdominal wall then became soft and loose. The mouse was next held with the left hand allowing for the palpation and assessment of the firm pancreatic tumor mass with the right hand. […] Volume (mm^3) of tumor was calculated using (W^2×L)/2, where W stood for minor tumor axis and L for the major. All mice were maintained in a pathogen-free condition, with a 12-hour light/dark cycle.
For ICB treatment in KPC1361 pancreatic tumor-bearing mice, randomization was performed when tumors reached approximately 100 mm^3. For ACT and vaccine experiments, the mice were randomized when tumors reached approximately 35 mm^3. Anti-mouse PD-1 (clone RMP1-14) and its isotype control were purchased from BioXcell, administered intraperitoneally at 250 μg per mouse, biweekly. […]

Row | SMILES | constitutive and induced surface expression of MHC-I [1] | efficacy of ICB to inhibit metastasis (B16-BL6 melanoma model) | lung metastasis (B16-BL6 melanoma model)
1 | Cc1cccc(/C=N/Nc2cc(N3CCOCC3)nc(OCCc3ccccn3)n2)c1 [apilimod, N-[(E)-(3-methylphenyl)methylideneamino]-6-morpholin-4-yl-2-(2-pyridin-2-ylethoxy)pyrimidin-4-amine] | upregulated | strongly enhanced | reduction of lung metastasis
2 | CC(C)Cn1c2ccc(Nc3ncccn3)cc2c2c3c(c4c(c21)CCc1nn(C)cc1-4)C(=O)NC3 [ESK981, 13-isobutyl-4-methyl-10-(pyrimidin-2-ylamino)-1,2,4,7,8,13-hexahydro-6H-indazolo[5,4-a]pyrrolo[3,4-c]carbazol-6-one] | upregulated | strongly enhanced | reduction of lung metastasis
